Data on one molecule can be found in BindingDB's records for doi:10.1016/s0960-894x(02)00471-7 (Universita' Di Firenze, 2002).

This assay has as its target T1, Substance-K receptor (Homo sapiens, UniProt P21452).
T1 sequence (P21452 whole entry): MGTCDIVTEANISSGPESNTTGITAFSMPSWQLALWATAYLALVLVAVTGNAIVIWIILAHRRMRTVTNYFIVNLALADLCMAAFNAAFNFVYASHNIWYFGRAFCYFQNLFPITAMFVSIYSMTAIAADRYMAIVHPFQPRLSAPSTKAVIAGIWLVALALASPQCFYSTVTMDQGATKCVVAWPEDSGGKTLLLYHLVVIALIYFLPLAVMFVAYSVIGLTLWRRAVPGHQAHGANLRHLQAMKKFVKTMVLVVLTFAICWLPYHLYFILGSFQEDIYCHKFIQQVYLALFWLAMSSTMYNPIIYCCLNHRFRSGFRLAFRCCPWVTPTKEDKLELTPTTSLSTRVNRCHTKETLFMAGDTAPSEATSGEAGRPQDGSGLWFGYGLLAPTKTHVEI
Description: ChEBML_209037. From the text:
Displacement of [125I]NKA from human Tachykinin receptor 2 expressed in CHO cells

The term Ki denotes the equilibrium dissociation constant of an inhibitor or competing ligand from its target. Read a low Ki as higher affinity.

For `CCOC(=O)C1C(C)OC2OC(COCc3ccccc3)C(OCc3ccccc3)C(=O)C2[S+]1[O-]` (stereo unspecified) [7-Benzyloxy-6-benzyloxymethyl-8-hydroxy-3-methyl-1-oxo-6,7,8,8a-tetrahydro-1H,4aH-4,5-dioxa-1lambda*4*-thia-naphthalene-2-carboxylic acid ethyl ester], the Ki came to 790 nM.
